From patent publication US6335320B1, “Method of treating fibrotic conditions” (UCB S.A., priority 1998, dated 2002)
No end group written: not given here.

Columns and labels:
[1] = test system: SM cells; settings: culture of SM cells, microinjection; cited from earlier work
[2] = test system: anti-alpha SM-1; settings: cited from earlier work
[3] = test system: α-SM actin; test: Effect on α-SM actin biosynthesis (S35 methionine incorporation) in VSMC; assay type: cell-based, rat; settings: for α-SM actin synthesis, control standardised at 100%: 2 mg/ml, VSMC, 37° C.
Method: In this table, the values of the control conditions were standardised at a 100% starting value (time=0 hour).

[4] = test system: splinted wound; test: Open splinted wound contraction model in rats; assay type: in vivo, rat; settings: topical
From the text: Test upon an open “splinted Wound” in Rats
In order to measure exclusively contraction, the inventors have developed the “splinted wound” model, based upon the technique of Gabbiani G. et al., J. of Exp.
The wound 2×2 cm in the back of the rat is fixed by suturing its margins to a plastic frame using suture thread (Supramid, metric 3, Braun, Emmenbrücke) on day 0. […] The peptidic product is applied on the open wound starting at the 7th day usually for 3 days and releases the suture of the frame, thus allowing an accelerated contraction which in controls reduces the area of the wound of about ⅔ within 48 hours.
We have measured morphometrically the contraction of the wound (5 rats per group) by means of planimetry (KS 400, Zeiss Vision) and studied the tissues morphologically by means of histological techniques, immunofluorescence with the α-SM actin antibody according to a method described in Gabbiani et al., J. Exp. Med. 1972 (p.15, line 8) and Darby et al. Lab. Invest. 1990 (p.1, line 24-25).
Table 3 presents the wound size (surface in cm^2) measured on day 3 as a percentage of the wound size measured on day 0.
The rats were treated with the peptidic product of example 1 at a dose of 3 mg/ml (mg of peptidic product, ml of 0.9% NaCl).

Substance: Acetyl-glutamyl-glutamyl-glutamyl-aspartyl (Ac-EEED) [AcEEED]
- incorporation of α-SM actin into stress fibers [1]: inhibits the incorporation of α-SM actin into stress fibers

Substance: AcEEEDSTALVC (Ac-EEEDSTALVC) [amino terminal decapeptide of α-SM actin]
- blocking effects on the binding of monoclonal antibody anti-alpha SM-1 [2]: blocking effects

Substance: ε-(Acetyl Glu Glu Glu Asp) Lys Arg Gln Ile Lys Ile Trp Phe Gln Asn Arg Arg Met Lys Trp Lys Lys OH [example 1, ε-(AcEEED)-K-(pAntp[43-58])]
- α-SM actin synthesis, control standardised at 100% ([3]; Experiment 1, 20 hours): 72%
- α-SM actin synthesis, control standardised at 100% ([3]; Experiment 2, 20 hours): 56%
- α-SM actin synthesis, control standardised at 100% ([3]; Experiment 3, 20 hours): 44%
- α-SM actin synthesis, control standardised at 100% ([3]; Experiment 4, 20 hours): 48%
- α-SM actin synthesis, control standardised at 100% ([3]; Mean of 4 experiments, 20 hours): 55%
- decrease of the α-SM actin synthesis compared to control conditions ([3]; mean value for the 4 experiments, 2 mg/ml culture medium): 55%
- contractile activity of the wound ([4]; 3 mg/ml): decrease in contractile activity
- Wound surface: wound size on day 3 as a percentage of the wound size on day 0 ([4]; 3 mg/ml in 0.9% NaCl, 5 rats per group): 48.42 ± 2.02%
